# From PubChem BioAssay AID1199 (EPA DSSTox, 2008)
# The source made the active and inactive calls.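 Rule for the calls: active = a tumour-causing dose and a tumour site recorded for mice in at least one sex group; inconclusive = only government mouse studies exist and were judged inadequate; inactive = mouse studies exist but none gave tumours.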
# Test system: mouse carcinogenicity bioassay, TD50 from CPDB
# Assay: DSSTox (CPDBAS) Carcinogenic Potency Database Summary Mouse Bioassay Results
# Excerpt: The Carcinogenic Potency Database (CPDB) is a unique and widely used international resource of the results of over 6500 chronic, long-term animal cancer tests on over 1500 chemical substances. The CPDB provides easy access to the bioassay literature, with qualitative and quantitative analyses of both positive and negative experiments that have been published over the past 50 years in the general literature and by the National Cancer Institute/National Toxicology Program. The CPDB standardizes the diverse literature of cancer bioassays that vary widely in protocol, histopathological examination and nomenclature, and in the published author's choices of what information to provide in their papers. Results are reported in the CPDB for tests in rats, mice, hamsters, dogs, and nonhuman primates, and are based on the most positive result among all experiments for each sex-species. The DSSTox CPDBAS (all species) file incorporates data from the CPDB Summary Tables for the full list of over 1500 chemical substances tested in at least one species. Summary bioassay results for Mouse (TD50, tumor sites, male, female, both sexes) are provided in the CPDB Summary Tables and the DSSTox CPDBAS file for over 1000 chemical substances.
# TD50 is a standardized quantitative measure of carcinogenic potency (analogous to an LD50) and is reported in the CPDB Summary Table for each species. Activity Score for actives is computed by mapping of LOG10 (1/TD50_Mouse_mmol) activity values spanning range [MIN, MAX] onto Integer 1-100 Activity Score range, where 100 is highest potency and 1 is lowest: Activity Score = 100 * INTEGER[(log10(1/Activity) - MIN)/(MAX […] MIN)]. If activity is reported but no TD50_Mouse_mmol value is computed, such as for a mixture, the Activity Score is assigned the activity value "50". […] Target sites are reported for each sex-species group with a positive result in the CPDB on the basis of a positive author's opinion for the particular site, using all results from both the general literature and NCI/NTP bioassays. If a chemical has two or more target sites listed, the results may be from different experiments, and a single site may be a target organ in more than one experiment, as well. Blank entry in TargetSites field indicates no results reported.
# [1] = TD50_Mouse_Note: no positive results, TargetSites_Mouse_Female: no positive results
# [2] = TD50_Mouse_Note: TD50 is harmonic mean of more than one positive test, TargetSites_Mouse_Female: liver
# [3] = TargetSites_Mouse_Female: liver
# [4] = TargetSites_Mouse_Female: no positive results
# [5] = TD50_Mouse_Note: no positive results
# [6] = TD50_Mouse_Note: TD50 is harmonic mean of more than one positive test, greater than ten-fold variation among TD50 values for positive res, TargetSites_Mouse_Female: liver
Structure (SMILES),outcome [1],other results
ClCC(Cl)CCl,,"Potency (TD50_Mouse_Note: TD50 is harmonic mean of more than one positive test, TargetSites_Mouse_Female: harderian gland, liver, oral cavity, stomach, uterus): 0.00593 mmol/kg/day"
COC(=O)C1=C(C)NC(C)=C(C(=O)OCCc2ccc(N3CCN(C(c4ccccc4)c4ccccc4)CC3)cc2)C1c1cccc([N+](=O)[O-])c1 (stereo not given),inactive; no positive results,
Clc1ccccc1Cl,inactive; no positive results,
Nc1cc(S(=O)(=O)[O-])cc2cc(S(=O)(=O)[O-])c(N=Nc3ccc(-c4ccc(N=Nc5c(S(=O)(=O)[O-])cc6cc(S(=O)(=O)[O-])cc(N)c6c5O)c(O)c4)cc3O)c(O)c12.[Cu].[Cu].[Na+].[Na+].[Na+].[Na+],,Potency [2]: 0.788 mmol/kg/day
Cc1ccc(N)cc1Cl,inactive; no positive results,
CCOc1ccc(NC(C)=O)cc1,,"Potency (TD50_Mouse_Note: TD50 is harmonic mean of more than one positive test, greater than ten-fold variation among TD50 values for positive res, TargetSites_Mouse_Female: urinary bladder): 11.9 mmol/kg/day"
Cc1[nH]cnc1CSCCN=C(NC#N)N(C)N=O,inactive,
C=C(C)[C@H]1Cc2c(ccc3c2O[C@@H]2COc4cc(OC)c(OC)cc4[C@@H]2C3=O)O1,inactive; no positive results,
CN(C)C(=O)Nc1cccc(C(F)(F)F)c1,inactive; no positive results,
CC1(C)S[C@@H]2[C@H](NC(=O)[C@H](N)c3ccccc3)C(=O)N2[C@H]1C(=O)O,inactive; no positive results,
CCOC(=O)[C@]1(c2ccccc2)CCC=C[C@H]1N(C)C,inactive; no positive results,
O=NN1CCCCCC1,,"Potency (TD50_Mouse_Note: TD50 is harmonic mean of more than one positive test, TargetSites_Mouse_Female: esophagus, liver, lung, nasal cavity, oral cavity, stomach): 0.00412 mmol/kg/day"
CN(C)c1ccc(N=NS(=O)(=O)O)cc1,inactive; no positive results,
CC1=C(/C=C/C(C)=C/C=C/C(C)=C/C(=O)O)C(C)(C)CCC1,inactive; no positive results,
Cc1ccc2c(-c3ccccc3)nc(=O)n(C(C)C)c2c1,inactive; no positive results,
C=CC(O)c1ccc(OC)cc1 (stereo not given),,Potency [3]: 0.352 mmol/kg/day
CC(=O)Nc1ccc(OCC(O)CNC(C)C)cc1 (stereo not given),inactive; no positive results,
CC(=O)C1C(=O)C=C(C)OC1=O (stereo not given),inactive; no positive results,
COc1ccc(OC)c(/C=C/c2ccc(N)cc2)c1,,Potency [4]: 0.376 mmol/kg/day
O=S(=O)(O)O,,"Potency (TD50_Mouse_Note: TD50 is harmonic mean of more than one positive test, greater than ten-fold variation among TD50 values for positive res, TargetSites_Mouse_Female: liver, lung): 0.0583 mmol/kg/day"
C=COC(C)=O,,"Potency (TargetSites_Mouse_Female: esophagus, oral cavity, stomach, uterus): 45.5 mmol/kg/day"
OCl,inactive; no positive results,
Nc1ccc(N)c(Cl)c1,inactive; no positive results,
Nc1ccc(/C=C/c2ccc(N)cc2S(=O)(=O)O)c(S(=O)(=O)O)c1,inactive; no positive results,
CC(C)(CCCOc1ccc(OCCCC(C)(C)C(=O)O)c(-c2ccccc2)c1)C(=O)O,,Potency [2]: 0.125 mmol/kg/day
O=C/C=C/O,,Potency [3]: 0.15 mmol/kg/day
CCN(CC)CC#CC(C)(C)OC(=O)C(O)(c1ccccc1)C1CCCCC1 (stereo not given),inactive; no positive results,

Structure (SMILES),outcome [1],other results
CC/C=C(/CC)[N+](=O)[O-],,Potency (TargetSites_Mouse_BothSexes: lung): 0.00268 mmol/kg/day
OC[C@@H](O)[C@@H](O)[C@H](O)[C@H](O)CO[C@H]1O[C@H](CO)[C@@H](O)[C@H](O)[C@H]1O,inactive; no positive results,
C/C=C/Cl,,Potency (TargetSites_Mouse_Female: stomach): 0.066 mmol/kg/day
O=c1[nH]cc(F)c(=O)[nH]1,,"Potency (TD50_Mouse_Note: TD50 is harmonic mean of more than one positive test, TargetSites_Mouse_Female: hematopoietic system, lung): 0.0228 mmol/kg/day"
CN1CCCC1=O,,Potency [2]: 20.7 mmol/kg/day
COc1cc(-c2ccc(N=C=O)c(OC)c2)ccc1N=C=O,inactive; no positive results,
CC(Oc1cc(Cl)c(Cl)cc1Cl)C(=O)O (stereo not given),inactive; no positive results,
Cc1cc(=O)[nH]c(=S)[nH]1,,outcome (TargetSites_Mouse_BothSexes: no positive results): inactive
CC(=O)Nc1ccc(O)cc1,,Potency [2]: 10.7 mmol/kg/day
C=C(Cl)Cl,,"Potency (TD50_Mouse_Note: TD50 is harmonic mean of more than one positive test, TargetSites_Mouse_Female: lung, mammary gland, vascular system): 0.357 mmol/kg/day"
[N-]=[N+]=O,inactive; no positive results,
O=C1Nc2ccc(Cl)cc2C(c2ccccc2)=NC1O (stereo not given),,"Potency (TD50_Mouse_Note: TD50 is harmonic mean of more than one positive test, TargetSites_Mouse_Female: liver, thyroid gland): 0.125 mmol/kg/day"
O=C(O)c1ccc(N=Nc2ccc(O)c(C(=O)O)c2)cc1,inactive; no positive results,
CC1(C)[C@@H](OC2O[C@H](C(=O)O)[C@@H](O)[C@H](O)[C@H]2O[C@H]2O[C@H](C(=O)O)[C@@H](O)[C@H](O)[C@H]2O)CC[C@]2(C)[C@H]3C(=O)C=C4[C@@H]5C[C@@](C)(C(=O)O)CC[C@]5(C)CC[C@@]4(C)[C@]3(C)CC[C@@H]12 (stereo not given in full),inactive; no positive results,
Nc1ccc(-c2ccccc2)cc1,,"Potency (TD50_Mouse_Note: TD50 is harmonic mean of more than one positive test, TargetSites_Mouse_Female: liver, urinary bladder): 0.0124 mmol/kg/day"
O=C([O-])C(=O)O.O=C([O-])C(=O)O.[K+].[K+].[O]=[Ti],inactive; no positive results,
Cc1ccc([N+](=O)[O-])cc1,inactive; no positive results,
CC(=O)C(N=Nc1ccc(-c2ccc(N=NC(C(C)=O)C(=O)Nc3ccccc3)c(Cl)c2)cc1Cl)C(=O)Nc1ccccc1 (stereo not given),inactive; no positive results,
O=C1CCCO1,inactive; no positive results,
ClCCl,,"Potency (TD50_Mouse_Note: TD50 is harmonic mean of more than one positive test, TargetSites_Mouse_Female: liver, lung): 13 mmol/kg/day"
O=C1CN(/N=C/c2ccc([N+](=O)[O-])o2)C(=O)N1,,Potency (TargetSites_Mouse_Female: ovary): 5.88 mmol/kg/day
Oc1cccc(O)c1,inactive; no positive results,
O1[As]2O[As]3O[As]1O[As](O2)O3,inactive; no positive results,
COC(=O)C(c1ccccc1)C1CCCCN1N=O (stereo not given),inactive; no positive results,
Nc1ccc2ccccc2c1,,Potency [2]: 0.275 mmol/kg/day
Cc1cc(N=Nc2ccccc2C)ccc1N,,outcome [5]: inactive; no positive results
Cc1cn([C@H]2C[C@H](N=[N+]=[N-])[C@@H](CO)O2)c(=O)[nH]c1=O,,"Potency (TD50_Mouse_Note: TD50 is harmonic mean of more than one positive test, TargetSites_Mouse_Female: vagina): 1.11 mmol/kg/day"

Structure (SMILES),outcome [1],other results
OC[C@@H](O)[C@@H](O)[C@H](O)[C@H](O)CO,inactive; no positive results,
C=CCc1ccc(OC)c(OC)c1,,Potency [2]: 0.108 mmol/kg/day
CC(Cc1ccccc1)NN (stereo not given),inactive; no positive results,
O=S(=O)(c1ccc(Cl)cc1)c1cc(Cl)c(Cl)cc1Cl,inactive; no positive results,
C=CCOc1ccccc1OCC(O)CNC(C)C (stereo not given),inactive; no positive results,
O=S1(=O)OCCO1,inactive,
CC1=C[C@H]2O[C@@H]3[C@H](O)[C@@H](O)[C@@](C)(C34CO4)[C@@]2(CO)[C@H](O)C1=O (stereo not given in full),inactive,
C=CC(=O)OCC,,"Potency (TD50_Mouse_Note: TD50 is harmonic mean of more than one positive test, TargetSites_Mouse_Female: stomach): 3.24 mmol/kg/day"
CN(C)C(=O)Nc1ccc(Cl)cc1,inactive; no positive results,
S=C(NC1CCCCC1)NC1CCCCC1,inactive; no positive results,
CCCOC(=O)C1c2cc3c(cc2CC(C)C1C(=O)OCCC)OCO3 (stereo not given),inactive; no positive results,
Clc1ccc2c(c1)C(c1ccccc1)=NCc1nncn1-2,inactive; no positive results,
ClC1(Cl)C2(Cl)C3(Cl)C4(Cl)C(Cl)(Cl)C5(Cl)C3(Cl)C1(Cl)C5(Cl)C24Cl (stereo not given),,Potency [2]: 0.00266 mmol/kg/day
NC(N)=NC(N)=NCCc1ccccc1,inactive; no positive results,
COS(C)(=O)=O,,Potency: 0.289 mmol/kg/day
CCOC(=O)CBr,inactive,
O.O.O.O.O.O.O.O.O=S(=O)([O-])[O-].O=S(=O)([O-])[O-].O=S(=O)([O-])[O-].[Cd+2].[Cd+2].[Cd+2],,outcome [5]: inactive; no positive results
ClC1=C(Cl)[C@@]2(Cl)[C@@H]3[C@@H](Cl)[C@H](Cl)C[C@@H]3C1(Cl)C2(Cl)Cl,,Potency [6]: 0.00334 mmol/kg/day
O=S(=O)([O-])[O-].[O]=[V+2],inactive; no positive results,
Oc1ccc(Cl)cc1Cc1ccccc1,,Potency [4]: 6.17 mmol/kg/day
ClCC(Cl)(Cl)Cl,,Potency [2]: 1.08 mmol/kg/day
O=C1OC(c2ccc(O)cc2)(c2ccc(O)cc2)c2ccccc21,,"Potency (TD50_Mouse_Note: TD50 is harmonic mean of more than one positive test, TargetSites_Mouse_Female: hematopoietic system, ovary): 3.68 mmol/kg/day"
CN(C)C(=O)Cl,,"Potency (TD50_Mouse_Note: positive test results only by intraperitoneal or intravenous injection, TargetSites_Mouse_Female: peritoneal cavity): 0.0499 mmol/kg/day"
NNc1nc(-c2ccc(N)cc2)cs1,,Potency (TargetSites_Mouse_Female: hematopoietic system): 0.0548 mmol/kg/day
CCOC(=O)C(O)(c1ccc(Cl)cc1)c1ccc(Cl)cc1,,Potency [6]: 0.289 mmol/kg/day
C=CCc1ccc2c(c1)OCO2,,"Potency (TD50_Mouse_Note: TD50 is harmonic mean of more than one positive test, harmonic mean of TD50 includes a value for upper 99% confidence li, TargetSites_Mouse_Female: liver): 0.316 mmol/kg/day"
